Experiments:
Details in all cases: 72 h
[1] = tested on: U2OS; test: relative viability EC50 (midpoint between 100% and the lowest measured viability); higher = less toxic
[2] = tested on: Vero E6; test: as above
[3] = tested on: HepG2; test: as above
[4] = tested on: Caco-2; test: as above
[5] = tested on: Calu-3; test: as above
[6] = tested on: U2OS; test: cell viability relative to DMSO; higher = less toxic
[7] = tested on: Vero E6; test: as above
[8] = tested on: HepG2; test: as above
[9] = tested on: Caco-2; test: as above
[10] = tested on: Calu-3; test: as above
[11] = tested on: U2OS; test: drug sensitivity score (DSS) for viability; higher = more toxic; extreme values may be limits of the assay
[12] = tested on: Vero E6; test: as above
[13] = tested on: HepG2; test: as above
[14] = tested on: Caco-2; test: as above
[15] = tested on: Calu-3; test: as above

| SMILES | relative viability EC50 [1] | relative viability EC50 [2] | relative viability EC50 [3] | relative viability EC50 [4] | relative viability EC50 [5] | cell viability ([6]; 1 nM) | cell viability ([6]; 10 nM) | cell viability ([6]; 100 nM) | cell viability ([6]; 1000 nM) | cell viability ([6]; 10000 nM) | cell viability ([7]; 1 nM) | cell viability ([7]; 10 nM) | cell viability ([7]; 100 nM) | cell viability ([7]; 1000 nM) | cell viability ([7]; 10000 nM) | cell viability ([8]; 1 nM) | cell viability ([8]; 10 nM) | cell viability ([8]; 100 nM) | cell viability ([8]; 1000 nM) | cell viability ([8]; 10000 nM) | cell viability ([9]; 1 nM) | cell viability ([9]; 10 nM) | cell viability ([9]; 100 nM) | cell viability ([9]; 1000 nM) | cell viability ([9]; 10000 nM) | cell viability ([10]; 1 nM) | cell viability ([10]; 10 nM) | cell viability ([10]; 100 nM) | cell viability ([10]; 1000 nM) | cell viability ([10]; 10000 nM) | drug sensitivity score [11] | drug sensitivity score [12] | drug sensitivity score [13] | drug sensitivity score [14] | drug sensitivity score [15] |
| --- | --- | --- | --- | --- | --- | --- | --- | --- | --- | --- | --- | --- | --- | --- | --- | --- | --- | --- | --- | --- | --- | --- | --- | --- | --- | --- | --- | --- | --- | --- | --- | --- | --- | --- | --- |
| C1CCC2(CC1)CCNCC2 [4,4-pentamethylenepiperidine] | > 10 µM | > 10 µM | > 10 µM | > 10 µM | > 10 µM | 97.2% | 95.3% | 95.2% | 94.9% | 91.7% | 102% | 101% | 100% | 104% | 98.7% | 104% | 90.7% | 96% | 102% | 96.7% | 99.9% | 93% | 97.4% | 91.2% | 102% | 99.2% | 96.3% | 109% | 95.1% | 101% | 0 | 0 | 0 | 0 | 0 |
| C=CCNC(=O)c1cc([N+](=O)[O-])cc2c(=O)[nH]c(Nc3ccc(Cl)c(Cl)c3)nc12 | > 10 µM | > 10 µM | > 10 µM | > 10 µM | > 10 µM | 97.7% | 96.2% | 102% | 98% | 92.1% | 92.4% | 94.3% | 92.9% | 97.5% | 97.7% | 104% | 90.5% | 100% | 91.9% | 95.8% | 100% | 95.5% | 99.1% | 96.5% | 98.4% | 104% | 93.2% | 103% | 102% | 94% | 0 | 0 | 0 | 0 | 0 |
| Nc1ccc(S(=O)(=O)NC(=O)c2ccccc2)cc1 [sulfabenzamide] | > 10 µM | > 10 µM | > 10 µM | > 10 µM | > 10 µM | 94.7% | 93.9% | 102% | 98.1% | 103% | 97.4% | 95.4% | 92.1% | 96.7% | 105% | 109% | 102% | 99% | 103% | 109% | 92.3% | 104% | 100% | 100% | 108% | 109% | 101% | 96.8% | 106% | 106% | 0 | 0 | 0 | 0 | 0 |
| CCCC(=O)O[C@]1(C(=O)COC(C)=O)CC[C@H]2[C@@H]3C[C@H](F)C4=CC(=O)C=C[C@]4(C)[C@@]3(F)[C@@H](O)C[C@@]21C [difluprednate] | > 10 µM | > 10 µM | > 10 µM | > 10 µM | > 10 µM | 99.5% | 93.3% | 93.4% | 94.1% | 92.1% | 96.9% | 97% | 95.3% | 98.9% | 94.2% | 97.5% | 93.7% | 107% | 105% | 88.3% | 96.6% | 93.2% | 98.3% | 101% | 91.8% | 106% | 90.7% | 87.7% | 90.5% | 102% | 0 | 0 | 0 | 0 | 0 |
| Nc1n[nH]c2nnc(-c3c(-c4ccccc4)nn4ccccc34)cc12 | > 10 µM | > 10 µM | > 10 µM | > 10 µM | > 10 µM | 98.2% | 102% | 94.9% | 102% | 89.1% | 105% | 93.6% | 97% | 94.8% | 84.5% | 102% | 95.2% | 103% | 97.9% | 91.8% | 95.7% | 107% | 90.4% | 97.1% | 84.3% | 98.9% | 102% | 99.8% | 90% | 95% | 0 | 0.2 | 0 | 0.2 | 0 |
| COc1ccc(OC)c2c(=S)c3ccccc3[nH]c12 | > 10 µM | > 10 µM | > 10 µM | > 10 µM | > 10 µM | 102% | 98.3% | 102% | 99.7% | 103% | 99.4% | 104% | 102% | 97.2% | 96.2% | 88.8% | 96.3% | 94% | 98.9% | 76.6% | 112% | 96.7% | 99.5% | 102% | 88.6% | 105% | 100% | 99.4% | 108% | 106% | 0 | 0 | 1 | 0 | 0 |
| CC(C)(C)CC(C)(C)c1ccc(O)c(Cc2ccc(Cl)cc2Cl)c1 [clofoctol] | > 10 µM | > 10 µM | > 10 µM | > 10 µM | > 10 µM | 99.4% | 103% | 102% | 103% | 96.9% | 107% | 101% | 102% | 99.8% | 102% | 109% | 98% | 113% | 96.2% | 98.5% | 94.6% | 102% | 99.7% | 99.8% | 93.8% | 91.2% | 96.5% | 92.4% | 90.9% | 98.5% | 0 | 0 | 0 | 0 | 0 |

Reference: the supplement of paper PMC13380429
